Tests used:
Bev-resistant RF24 cells = assay: Cell death in bevacizumab-resistant RF24 cells (SYTOX-green flow cytometry); assay type: cell-based
Protocol: FIGS. 4A-D: BIDEN-AP-based agents inhibit microtubule formation and sensitizes resistant endothelial cells to anti-VEGF antibody. (FIG. 4A, FIG. 4B) Microtubule formation in RF24 cells treated with EFNB2-Fc (2 nM) or BIDEN-AP (15 μM) compared to untreated controls (CTL). Five images per well were taken at ×100 magnification. […] Representative plots from flow cytometry analysis with SYTOX-green are shown. […] Data are presented as mean±SD (n=6). *p<0.05, **p<0.01.
Given the important role of endothelium in adaptive changes with anti-angiogenic therapy (Bergers et al., 2008), we further tested the effects of BIDEN-AP in overcoming resistance to anti-VEGF therapy in RF24 cells. To do this, we first established a bevacizumab (Bev)-resistant RF24 cell line selected though continuous Bev treatment at low dose ([…]) for 2 weeks. The Bev-resistant RF24 cells were maintained at a Bev concentration of […]. Using flow cytometry with SYTOX-green staining, we quantified the live (SYTOX-negative) vs. dead (SYTOX-positive) populations after treatment with BIDEN-AP or CCPM-BIDEN-AP.

A2780cp20-Luc tumors = assay: Orthotopic A2780cp20-Luc ovarian cancer model; assay type: in vivo, mouse
Text: Female nude mice were intraperitoneally (i.p.) inoculated with […] tumor cells. […] Tumor growth was monitored by bioluminescence imaging (IVIS). […] CTL, untreated control.
Orthotopic ovarian cancer models. […] For all therapeutic experiments, groups of the mice (n=8-10) were inoculated intraperitoneally with A2780cp20-Luc cells. […] Untreated mice were used as a control.
Immunoblotting, immunoprecipitation, and co-immunoprecipitation. For immunoblotting, lysates from cultured cells were prepared using modified radioimmunoprecipitation assay (RIPA) buffer (50 mM Tris-HCl [pH 7.4], 150 mM NaCl, 1% Triton, 0.5% deoxycholate) plus 25 μg/mL leupeptin, 10 μg/mL aprotinin, 2 mM EDTA, and 1 mM sodium orthovanadate. To prepare lysates of snap-frozen tissue from mice, approximately 30-mm^3 cuts of tissue were disrupted with a tissue homogenizer and subjected to centrifugation at 13,000 rpm for 30 min in modified RIPA buffer. The protein concentrations were determined by using a BCA Protein Assay Reagent kit (Pierce Biotechnology, Rockford, IL). Lysates were loaded and separated by 8% sodium dodecyl sulfate (SDS)-polyacrylamide gel electrophoresis (PAGE). Proteins were transferred to a nitrocellulose membrane by semidry electrophoresis (Bio-Rad Laboratories, Hercules, CA) overnight, blocked with 3% BSA for 1 h, and then incubated at 4° C. with primary antibody overnight. After washing with a mixture of tris-buffered saline and Tween 20 (TBST) solutions, the membranes were incubated with horseradish peroxidase (HRP)-conjugated horse anti-mouse IgG (1:2000, GE Healthcare, Amersham Place, UK) for 2 h. HRP was visualized by an enhanced chemoluminescence detection kit (Pierce). […] Densitometry was performed using ImageJ software. For immunoprecipitation and co-immunoprecipitation, cells were subjected to lysis in non-denaturing NP40 cell lysis buffer (Cell Signaling Technology, Boston, MA). The extracts were incubated with A/G-conjugated antibody at 4° C. for 2 h, and for immunoprecipitation the beads were washed twice with RIPA buffer, once with 0.5 m LiCl in 0.1 m Tris (pH 8.0), and once with PBS. Reactions were boiled in sample buffer, and proteins were then subjected to 10% SDS-PAGE and immunoblotting.
Immunofluorescence analysis of CD31 was performed on 5-μm-thick fresh-frozen tissue samples. After deblocking with acetone, acetone-chloroform (1:1), and acetone for 5 min, non-specific binding was blocked with 4% fish gelatin (Biotium Inc, Hayward, CA) in PBS for 30 min.
Immunohistochemistry (IHC) analysis.

CCPM-BIDEN-AP: nano-conjugate of Cys-BIDEN-AP on core-crosslinked polymeric micelles via maleimide (GMBS) (CTNYLFSPNGPIARAW; D-residues)
sensitization of Bev-resistant cells to Bev treatment (Bev-resistant RF24 cells): re-sensitized these cells to Bev treatment | bioluminescence signal intensity (A2780cp20-Luc tumors; day 28, 13 mg/kg/injection i.p., 10 doses): significantly reduced the bioluminescence signal intensity | metastatic nodules, comparison of the two agents (A2780cp20-Luc tumors; day 31): reduced metastatic nodules to a greater extent than BIDEN-AP | tumor growth in the peritoneum (tumor weight, number of metastatic nodules) (A2780cp20-Luc tumors; day 31, 13 mg/kg/injection i.p., 10 doses): significantly reduced tumor growth | apoptotic cell death in CD31 endothelial vasculature (TUNEL) (A2780cp20-Luc tumors; excised tumors): induced apoptotic cell death | tumor cell proliferation (Ki67-positive cells) (A2780cp20-Luc tumors; excised tumors): significantly reduced tumor cell proliferation | microvessel density (MVD) (A2780cp20-Luc tumors; excised tumors, CD31): decreased microvessel density | EphB4 and Crk1 phosphorylation in vivo (A2780cp20-Luc tumors; orthotopic A2780cp20 tumors): induce EphB4 and Crk1 phosphorylation

From patent US12448425B2, “Therapeutic peptides” (Board of Regents, The University of Texas System, priority 2019, dated 2025)
